≈ marks a conversion by molar mass, not a printed value.
System: Mycobacterium tuberculosis
Assay: Antimycobacterial activity against Mycobacterium tuberculosis H37Rv ATCC 27294 after 7 days by microplate alamar blue assay
Type: functional
Details: H37Rv ATCC 27294, 168 h

Row | SMILES | MIC90 [mg/L]
1 | O=C(c1ccc([N+](=O)[O-])o1)N1CCc2ccccc21 | 0.482 (≈ 1.87 µM)
2 | O=C(c1ccc([N+](=O)[O-])o1)N1CC/C(=N\OCc2ccccc2)C1 | 0.291 (≈ 0.884 µM)
3 | O=C(c1ccc([N+](=O)[O-])o1)N1CCC(=NOCc2ccc(C(F)(F)F)cc2)CC1 | > 32
4 | CON=C1CCN(C(=O)c2ccc([N+](=O)[O-])o2)CC1 | 1.93 (≈ 7.23 µM)
5 | O=C(c1ccc([N+](=O)[O-])o1)N1CCC(=NOCc2ccc([N+](=O)[O-])cc2)CC1 | > 32
6 | CCON=C1CCN(C(=O)c2ccc([N+](=O)[O-])o2)CC1 | 14.1 (≈ 50.3 µM)
7 | O=C(c1ccc([N+](=O)[O-])o1)N1CCC(=NOCc2ccccc2)CC1 | 0.158 (≈ 0.46 µM)
8 | O=C(c1ccc([N+](=O)[O-])o1)N1CCC(=NOCc2ccc(OC(F)(F)F)cc2)CC1 | > 32
9 | CO/N=C1\CCN(C(=O)c2ccc([N+](=O)[O-])o2)C1 | 1.83 (≈ 7.22 µM)
10 | CCO/N=C1\CCN(C(=O)c2ccc([N+](=O)[O-])o2)C1 | > 32
11 | O=C(c1ccc([N+](=O)[O-])o1)N1CCC(=NOCc2ccc(F)cc2)CC1 | 5.88 (≈ 16.3 µM)
12 | NNC(=O)c1ccncc1 [ISONIAZID] | 0.035 (≈ 0.255 µM)
13 | CO[C@H]1/C=C/O[C@@]2(C)Oc3c(C)c(O)c4c(O)c(c(/C=N/N5CCN(C)CC5)c(O)c4c3C2=O)NC(=O)/C(C)=C\C=C\[C@H](C)[C@H](O)[C@@H](C)[C@@H](O)[C@@H](C)[C@H](OC(C)=O)[C@@H]1C [RIFAMPIN] | 0.059 (≈ 0.0717 µM)
